Results reported in paper PMC5013046, “A Sex Pheromone Receptor in the Hessian Fly Mayetiola destructor (Diptera, Cecidomyiidae)” (Frontiers in Cellular Neuroscience, 2016).

Target: T1, MdesOR115 (with MdesOrco; HEK293/TMO/MdesOR115) (Mayetiola destructor, UniProt A0A1D8GZG1)
T1 construct: with Odorant receptor coreceptor
T1 sequence (A0A1D8GZG1 1-412): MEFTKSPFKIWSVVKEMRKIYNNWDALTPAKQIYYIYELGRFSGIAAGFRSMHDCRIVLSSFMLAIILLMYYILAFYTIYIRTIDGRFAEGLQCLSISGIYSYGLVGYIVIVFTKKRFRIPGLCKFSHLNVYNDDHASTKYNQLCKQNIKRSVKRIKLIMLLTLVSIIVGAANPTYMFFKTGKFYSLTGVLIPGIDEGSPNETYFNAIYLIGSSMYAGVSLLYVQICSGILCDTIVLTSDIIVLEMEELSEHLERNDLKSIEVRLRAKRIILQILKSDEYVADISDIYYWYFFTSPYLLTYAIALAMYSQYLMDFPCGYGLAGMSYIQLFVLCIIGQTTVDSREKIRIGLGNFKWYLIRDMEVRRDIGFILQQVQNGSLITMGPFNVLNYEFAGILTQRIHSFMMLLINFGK
T1 sequence (A0A1D8GZG0 1-466 partner): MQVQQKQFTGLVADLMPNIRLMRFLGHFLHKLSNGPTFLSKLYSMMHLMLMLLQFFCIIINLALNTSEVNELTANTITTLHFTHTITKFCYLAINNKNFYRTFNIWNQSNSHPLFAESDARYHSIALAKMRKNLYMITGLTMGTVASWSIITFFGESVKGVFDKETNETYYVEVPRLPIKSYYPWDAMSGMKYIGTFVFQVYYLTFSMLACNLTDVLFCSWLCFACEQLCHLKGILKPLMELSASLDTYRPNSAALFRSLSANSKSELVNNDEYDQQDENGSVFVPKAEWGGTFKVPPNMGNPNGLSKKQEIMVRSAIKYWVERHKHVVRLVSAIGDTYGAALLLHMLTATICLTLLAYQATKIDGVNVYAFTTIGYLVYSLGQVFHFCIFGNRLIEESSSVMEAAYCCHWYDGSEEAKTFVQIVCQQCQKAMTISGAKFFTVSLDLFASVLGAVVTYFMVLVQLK
Assay: fluorescent calcium assay, HEK293 cells, dose-response
Type: cell-based

CC/C=C/C=C/CCCCC[C@H](C)OC(C)=O [2S-8E,10E-13:OAc, (2S,8E,10E)-8,10-tridecadien-2-yl acetate]
EC50: 2020 to 3690 nM
